Experimental data taken from patent US10251394B2, “Molecules having pesticidal utility, and intermediates, compositions, and processes, related thereto” (Dow AgroSciences LLC, priority 2016, dated 2019).

Experiments:
[1] = tested on: Beet Armyworm (Spodoptera exigua); assay: Bioassay on Beet Armyworm (BAW), 128-well diet tray assay; format: in vivo; conditions: for pest or weed control at 50 µg/cm2: Beet Armyworm, Table ABC, read-out: BAW rating; for mortality at 0.05 µg/cm2 / mortality at 0.5 µg/cm2 / mortality at 5 µg/cm2: 168 h, second instar larvae, five to seven days, read-out: BAW Percent control (or mortality); for mortality at 0.05 µg/cm2: 0.05 μg/cm^2 on artificial diet; for mortality at 0.5 µg/cm2: 0.5 μg/cm^2 on artificial diet; for mortality at 5 µg/cm2: 5 μg/cm^2 on artificial diet
Summary of the method: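 Percent mortality, averaged over eight wells, was scored after five to seven days at 25° C under 14:10 light-dark. Each well's diet carried 50 μg/cm^2 of test molecule applied in acetone-water (90:10) and dried before one to five second-instar larvae were added.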

[2] = tested on: Cabbage Looper (Trichoplusia ni); assay: Bioassay on Cabbage Looper (CL), 128-well diet tray assay; format: in vivo; conditions: for pest or weed control at 50 µg/cm2: Cabbage Looper, Table ABC, read-out: CL rating; for mortality at 0.05 µg/cm2 / mortality at 0.5 µg/cm2 / mortality at 5 µg/cm2: 168 h, second instar larvae, five to seven days, read-out: CL Percent control (or mortality); for mortality at 0.05 µg/cm2: 0.05 μg/cm^2 on artificial diet; for mortality at 0.5 µg/cm2: 0.5 μg/cm^2 on artificial diet; for mortality at 5 µg/cm2: 5 μg/cm^2 on artificial diet
Summary of the method: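 Mortality after five to seven days at 25° C (14:10 photoperiod), averaged over eight wells per compound. Diet in each well carried 50 μg/cm^2 of dried test molecule and received one to five second-instar larvae.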

Row | Compound | pest or weed control at 50 µg/cm2 [1] [%] | pest or weed control at 50 µg/cm2 [2] [%] | other results
1 | Cc1cc(C(/C=C(\F)c2ccc(C(=O)NCC(=O)N(C)CC(F)(F)F)c(C(F)(F)F)c2)C(F)(F)F)ccc1Cl (centres unmarked) [PF47, (Z)-4-(3-(4-Chloro-3-methylphenyl)-1,4,4,4-tetrafluorobut-1-en-1-yl)-N-(2-(methyl(2,2,2-trifluoroethyl)amino]-2-oxoethyl)-2-(trifluoromethyl)benzamide] | 50 to 100 | 50 to 100 | 
2 | C[C@@H](NC(=O)c1ccc(/C(F)=C/C(c2cc(Cl)c(Cl)c(C(F)F)c2)C(F)(F)F)cc1C(F)(F)F)C(=O)NCC(F)(F)F (stereo partly drawn) [F195, 4-((Z)-3-(3,4-dichloro-5-(difluoromethyl)phenyl)-1,4,4,4-tetrafluorobut-1-en-1-yl)-N—((R)-1-oxo-1-((2,2,2-trifluoroethyl)amino)propan-2-yl)-2-(trifluoromethyl)benzamide] | 50 to 100 | 50 to 100 | 
3 | C[C@@H](NC(=O)c1ccc(/C(F)=C/C(c2cc(Cl)cc(C(F)(F)F)c2)C(F)(F)F)cc1C(F)(F)F)C(=O)NCC(F)(F)F (stereo partly drawn) [PF42, 4-((Z)-3-(3-Chloro-5-(trifluoromethyl)phenyl)-1,4,4,4-tetrafluorobut-1-en-1-yl)-N-((1R)-1-oxo-1-((2,2,2-trifluoroethyl)amino)propan-2-yl)-2-(trifluoromethyl)benzamide] | 50 to 100 | 50 to 100 | 
4 | C[C@@H](NC(=O)c1ccc(/C(F)=C/C(c2cc(Cl)c(Cl)c(Br)c2)C(F)(F)F)cc1C(F)(F)F)C(=O)NCC(F)(F)F (stereo partly drawn) [F185, 4-((Z)-3-(3-Bromo-4,5-dichlorophenyl)-1,4,4,4-tetrafluorobut-1-en-1-yl)-N—((R)-1-oxo-1-((2,2,2-trifluoroethyl)amino)propan-2-yl)-2-(trifluoromethyl)benzamide] | 50 to 100 | 50 to 100 | 
5 | O=C(CNC(=O)c1ccc(/C(F)=C/C(c2ccc(C(F)(F)F)c(F)c2)C(F)(F)F)cc1C(F)(F)F)NCC(F)(F)F (centres unmarked) [F211] | 50 to 100 | 50 to 100 | 
6 | O=C(NC1(C(=O)NCC(F)(F)F)CC1)c1ccc(/C(F)=C/C(c2ccc(Cl)c(Cl)c2)C(F)(F)F)cc1Br (centres unmarked) [F125, (Z)-2-Bromo-4-(3-(3,4-dichlorophenyl)-1,4,4,4-tetrafluorobut-1-en-1-yl)-N-(1-((2,2,2-trifluoroethyl)carbamoyl)cyclopropyl)benzamide] | 50 to 100 | 50 to 100 | 
7 | C[C@@H](NC(=O)c1ccc(/C(F)=C/C(c2cc(Cl)cc(Cl)c2)C(F)(F)F)cc1C(F)(F)F)C(=O)NCC(F)(F)F (stereo partly drawn) [F105, 4-((Z)-3-(3,5-Dichlorophenyl)-1,4,4,4-tetrafluorobut-1-en-1-yl)-N—((R)-1-oxo-1-((2,2,2-trifluoroethyl)amino)propan-2-yl)-2-(trifluoromethyl)benzamide] | 50 to 100 | 50 to 100 | 
8 | C=CCNC(=O)[C@@H](C)NC(=O)c1ccc(/C(F)=C/C(c2cc(Cl)c(Cl)c(Cl)c2)C(F)(F)F)cc1C(F)(F)F (stereo partly drawn) [F11, N—((R)-1-(Allylamino)-1-oxopropan-2-yl)-4-((Z)-1,4,4,4-tetrafluoro-3-(3,4,5-trichlorophenyl)but-1-en-1-yl)-2-(trifluoromethyl)benzamide] | 50 to 100 | 50 to 100 | 
9 | Cc1cc(/C(F)=C/C(c2cc(Cl)c(Cl)c(Cl)c2)C(F)(F)F)ccc1C(=O)NC1(C(=O)NCC(F)(F)F)CC1 (centres unmarked) [F8, (Z)-2-Methyl-4-(1,4,4,4-tetrafluoro-3-(3,4,5-trichlorophenyl)but-1-en-1-yl)-N-(1-((2,2,2-trifluoroethyl)carbamoyl)cyclopropyl)benzamide] | 50 to 100 | 50 to 100 | 
10 | O=C(NC1(C(=O)NCC(F)(F)F)CC1)c1ccc(/C(F)=C/C(c2cc(Cl)cc(C(F)(F)F)c2)C(F)(F)F)cc1C(F)(F)F (centres unmarked) [PF44] | 50 to 100 | 50 to 100 | 
11 | O=C(NC1(C(=O)NCC(F)(F)F)CC1)c1ccc(/C(F)=C/C(c2cc(Cl)c(Cl)c(Cl)c2)C(F)(F)F)cc1Cl (centres unmarked) [F28, (Z)-2-Chloro-4-(1,4,4,4-tetrafluoro-3-(3,4,5-trichlorophenyl)but-1-en-1-yl)-N-(1-((2,2,2-trifluoroethyl)carbamoyl)cyclopropyl)benzamide] | 50 to 100 | 50 to 100 | 
12 | O=C(CNC(=O)c1ccc(/C(F)=C/C(c2cc(Cl)c(Cl)c(Cl)c2)C(F)(F)F)cc1Br)NCC(F)(F)F (centres unmarked) [F19, (Z)-2-Bromo-N-(2-oxo-2-((2,2,2-trifluoroethyl)amino)ethyl)-4-(1,4,4,4-tetrafluoro-3-(3,4,5-trichlorophenyl)but-1-en-1-yl)benzamide] | 50 to 100 | 50 to 100 | mortality at 0.05 µg/cm2 [1]: 100%; mortality at 0.5 µg/cm2 [1]: 100%; mortality at 5 µg/cm2 [1]: 100%; mortality at 0.05 µg/cm2 [2]: 100%; mortality at 0.5 µg/cm2 [2]: 100%; mortality at 5 µg/cm2 [2]: 100%
13 | O=C(CNC(=O)c1ccc(/C(F)=C/C(c2cc(Cl)c(Cl)c(Cl)c2)C(F)(F)F)cc1)NCC(F)(F)F (centres unmarked) [FC1, (Z)—N-(2-Oxo-2-((2,2,2-trifluoroethyl)amino)ethyl)-4-(1,4,4,4-tetrafluoro-3-(3,4,5-trichlorophenyl)but-1-en-1-yl)benzamide] |  |  | mortality at 0.05 µg/cm2 [1]: 0%; mortality at 0.5 µg/cm2 [1]: 100%; mortality at 5 µg/cm2 [1]: 100%; mortality at 0.05 µg/cm2 [2]: 0%; mortality at 0.5 µg/cm2 [2]: 100%; mortality at 5 µg/cm2 [2]: 100%
14 | C[C@@H](NC(=O)c1ccc(/C(F)=C/C(c2cc(Cl)c(Cl)c(Cl)c2)C(F)(F)F)cc1C(F)(F)F)C(=O)N(C)CC(F)(F)F (stereo partly drawn) [F13, N—((R)-1-(Methyl(2,2,2-trifluoroethyl)amino)-1-oxopropan-2-yl)-4-((Z)-1,4,4,4-tetrafluoro-3-(3,4,5-trichlorophenyl)but-1-en-1-yl)-2-(trifluoromethyl)benzamide] | 50 to 100 | 50 to 100 | 
15 | CC[C@@H](NC(=O)c1ccc(/C(F)=C/C(c2cc(Cl)c(Cl)c(Cl)c2)C(F)(F)F)cc1C(F)(F)F)C(=O)NCC(F)(F)F (stereo partly drawn) [F98, N—((R)-1-Oxo-1-((2,2,2-trifluoroethyl)amino)butan-2-yl)-4-((Z)-1,4,4,4-tetrafluoro-3-(3,4,5-trichlorophenyl)but-1-en-1-yl)-2-(trifluoromethyl)benzamide] | 50 to 100 | 50 to 100 | 
16 | C=Cc1cc(C(/C=C(\F)c2ccc(C(=O)N[C@H](C)C(=O)NCC(F)(F)F)c(C(F)(F)F)c2)C(F)(F)F)cc(Cl)c1Cl (stereo partly drawn) [F186, 4-((Z)-3-(3,4-dichloro-5-vinylphenyl)-1,4,4,4-tetrafluorobut-1-en-1-yl)-N—((R)-1-oxo-1-((2,2,2-trifluoroethyl)amino)propan-2-yl)-2-(trifluoromethyl)benzamide] | 50 to 100 | 50 to 100 | 
17 | C[C@@H](NC(=O)c1ccc(/C(F)=C/C(c2ccc(Cl)c(Cl)c2)C(C)(F)F)cc1C(F)(F)F)C(=O)NCC(F)(F)F (stereo partly drawn) [F112, 4-((Z)-3-(3,4-Dichlorophenyl)-1,4,4-trifluoropent-1-en-1-yl)-N—((R)-1-oxo-1-((2,2,2-trifluoroethyl)amino)propan-2-yl)-2-(trifluoromethyl)benzamide] | 50 to 100 | 50 to 100 | 
